Test results taken from article PMC11003925, “Antimicrobial activity and properties of de novo design of short synthetic lipopeptides” (Folia Microbiologica, 2024).
≈ marks a conversion by molar mass, not a printed value. Read-outs that look alike come from different tables or passages of the source. Residues, ends and D or L forms follow the SMILES beside them. *: point of attachment. Lithocholoyl = C[C@H](CCC(=O)*)[C@H]1CC[C@H]2[C@@H]3CC[C@@H]4C[C@H](O)CC[C@]4(C)[C@H]3CC[C@]12C; Palmitoyl = CCCCCCCCCCCCCCCC(=O)*

Assays:
[1] = tested on: all the tested microorganisms; experiment: Microtitre dilution screening at 1 mg/mL; type: cell-based; settings: c = 1 mg/mL, microtitre dilution method
Experimental: (§1) A Bioscreen C automated microbiology growth curve analysis system (Growth Curves, Piscataway, NJ, USA) was used for the quantitative determination of antimicrobial activity (minimal inhibitory concentration, MIC) of PAL/LCA-peptides. Optical density was measured with a wide bandpass filter (wavelength range 420–580 nm) at regular intervals and temperatures. This assay was performed in a special microtiter plate (10 × 10 wells) that allowed the simultaneous testing of a large number of samples against several microorganisms. The total testing volume was 100 µL, obtained by mixing 10 µL of microbial culture with OD600 equal to 0.1 with growth medium and a solution of the tested compounds. The positive controls were vancomycin and tetracycline for Bacillus subtilis (100 µg/mL) for Gram-positive bacteria, kanamycin, and tetracycline for Acinetobacter baumannii (100 µg/mL) for Gram-negative bacteria, and clotrimazole or amphotericin (100 µg/mL) for fungi. The maximal concentration of tested lipoproteins was 1 mg/mL. A pure growth medium was used as the negative control. The measurement period was 25 h. The lowest concentration with a 100% inhibition effect for 24 h of incubation was chosen as the MIC. The antibacterial activity of each compound was expressed as the minimum inhibitory concentration MIC (MIC is the lowest concentration of the compound needed to inhibit the growth of bacterial cells) and IC50 (IC50 is the concentration of the compound needed to inhibit the growth of bacterial cells by 50%).

HepG2 = experiment: Cytotoxicity assay (xCELLigence impedance); type: cell-based, human; settings: 24 h exposure
Experimental: (§2) Experiments were carried out using an xCELLigence RTCA DP Instrument (Roche Diagnostics GmbH, Mannheim, Germany) which was placed into an incubator (37 °C and 5% CO2). Cell proliferation and cytotoxicity experiments were performed using modified 16-well plates (E-plate, Roche Diagnostics GmbH, Mannheim, Germany). Microelectrodes were attached to the bottom of the wells for the impedance-based detection of attachment, spreading, and proliferation of the cells (Stoddart [2011]). This system monitors cellular events in real time without the incorporation of labels by measuring electrical impedance across an interdigitated microelectrode integrated into the bottom of this special tissue culture plate. This impedance measurement improves upon conventional endpoint assays and provides quantitative information about the biological status of the cells, including cell number, adhesion, viability, and morphology. Ninety microliters of cultivation medium was used for the blank sample, and subsequently, 100 µL of HepG2 or HEK293T cell suspension (7 × 10^5 cells/mL) was added and placed into the incubator (37 °C, 95% humidity, 5% CO2). […] Chrysophsin-3 at a concentration of 100 µg/mL was used as a positive control and solvent (deionized water) as a negative control. Subsequent incubation was performed for at least an additional 24 h. The result of the measurement was viability curves. After the measurement, percentages of tissue culture growth inhibition were calculated for all the tested substances, as follows: %inhibition=(1-(ΔϕCIsample)/(ΔϕCIcontrol))·100
(§3) Δ∅CIsample … the difference between the first and last average CI (cell index) values of the tissue culture in the presence of the tested sample.
(§4) Δ∅CIcontrol … the difference between the first and last average CI values of the tissue culture itself.

HEK293T = experiment: Cytotoxicity assay (xCELLigence impedance); type: cell-based, human; settings: 24 h exposure
Experimental: as §2, §3, §4

A. baumannii DBM 3183 = experiment: microbe, parasite or virus in culture; type: cell-based, Acinetobacter baumannii; settings: for IC50: DBM 3183, 25 h
Experimental: as §1

M. luteus DBM 3053 = type: cell-based, Micrococcus luteus; settings: for MIC: DBM 3053, 24 h; for IC50: DBM 3053, 25 h
Experimental: as §1

Staph. aureus DBM 3002 = type: cell-based, Staphylococcus aureus; settings: for IC50: 25 h; for MIC: 24 h
Experimental: as §1

Staph. aureus MRSA1 = type: cell-based, Staphylococcus aureus; settings: for MIC: 24 h; for IC50: 25 h
Experimental: as §1

E. faecalis DBM 3075 = type: cell-based; settings: DBM 3075, 25 h
Experimental: as §1

E. coli DBM 3001 = type: cell-based; settings: for IC50: DBM 3001, 25 h
Experimental: as §1

C. tropicalis DBM 2166 = type: cell-based, Candida tropicalis; settings: for IC50: DBM 2166, 25 h
Experimental: as §1

B. subtilis DBM 3006 = type: cell-based, Bacillus subtilis; settings: for IC50: DBM 3006, 25 h; for MIC: DBM 3006, 24 h
Experimental: as §1

Ps. aeruginosa DBM 3081 = type: cell-based, Pseudomonas aeruginosa; settings: for IC50: 25 h
Experimental: as §1

plasmid pGreen 0029 = experiment: DNA binding assay (gel retardation); settings: for weight ratio lipopeptide:DNA influencing electrophoretic mobility: 50 ng DNA, 1 h room temperature, 1% agarose gel
Experimental: This assay was performed as described by Park et al. ([1998]), with a few modifications. […] The reaction mixture was incubated at room temperature for 1 h. Subsequently, 4 µL of native loading buffer (10% Ficol, 10 mM Tris–HCl (pH 7.5), 50 mM EDTA, 0.25% bromophenol blue) was added. An aliquot was applied to 1% agarose gel electrophoresis in 0.5xTris borate-EDTA buffer. Circular plasmid DNA was isolated from (Luria–Bertani medium with AMPI in final concentration 100 µg/mL) bacterial strain E. coli DH5α / pBluescriptII KS- that had been grown overnight, and linearization was performed overnight by enzymatic reaction using restriction endonuclease EcoRV at 37 °C. The evaluation was performed by visualizing the DNA with the intercalation dye Midori Green Advanced DNA Stain under UV light. Reduced electrophoretic mobility compared to the control is considered to be evidence of peptide binding to DNA.
According to the previous results, we decided to clarify one of the possible molecular interaction mechanisms, the ability of the studied lipopeptides to bind microbial plasmid DNA. Based on the assumption that pore formation is only one of the influencing factors, which arose from previous results, the effect on one of the possible intracellular targets, DNA, was determined. This determination was carried out on isolated plasmid DNA, specifically on two plasmids, pGreen 0029 and pBluescript II KS- in circular and linearized form.

Staph. aureus = experiment: Transmission electron microscopy of treated bacteria; type: cell-based, Staphylococcus aureus; settings: 1 to 4 h incubation; media with (Mueller–Hinton broth 2) and without nutrients (potassium phosphate buffer)
Experimental: Pictures of damaged bacterial cells were obtained by transmission electron microscopy after 1 to 4 h of incubation. Cells of the Gram-positive bacterial strains were not stained. A JEOL JEM-1010 transmission electron microscope (JEOL, Tokyo, Japan) equipped with a MegaView III CCD camera was used for visualization, and evaluation was performed with the program for image analysis AnalySIS software v. 2.0 (Soft Imaging Systems). The samples were plated on a carbon-coated electron microscopic grid and observed with an accelerating voltage of 80 kV.

[2] = first value of cell 'MIC / IC50', 100% inhibition for 24 h

Row | Compound | growth inhibition / activity in screening [1] | % inhibition (HepG2; c 50 µg/mL) [%] | % inhibition (HepG2; c 100 µg/mL) [%] | % inhibition (HEK293T; c 50 µg/mL) [%] | % inhibition (HEK293T; c 100 µg/mL) [%] | % inhibition (HEK293T; c 200 µg/mL) [%] | IC50 (A. baumannii DBM 3183) | MIC (M. luteus DBM 3053) [µg/mL] | IC50 (M. luteus DBM 3053) [µg/mL] | IC50 (Staph. aureus DBM 3002) | MIC (Staph. aureus MRSA1) [µg/mL] | IC50 (Staph. aureus MRSA1) [µg/mL] | IC50 (E. faecalis DBM 3075) | IC50 (E. coli DBM 3001) | IC50 (C. tropicalis DBM 2166) | IC50 (B. subtilis DBM 3006) | IC50 (Ps. aeruginosa DBM 3081) | further results
1 | LVKGAR-NH2 [SHP-2.1, primary hexapeptide with C-terminal amidation] | low activity |  |  |  |  |  |  |  |  |  |  |  |  |  |  |  |  | 
2 | CCCCCCCCCCCCCCCC(=O)N[C@@H](CC(C)C)C(=O)N[C@H](C(=O)N[C@@H](CCCCN)C(=O)NCC(=O)N[C@@H](C)C(=O)N[C@@H](CCCNC(=N)N)C(N)=O)C(C)C [SHP-2.2, PAL-LVKGAR-NH2] (Palmitoyl-LVKGAR-NH2) |  | 4.3 ± 0.6 | 11.4 ± 1.7 | 11.1 ± 1.7 | 19.3 ± 2.9 | 28.6 ± 4.3 | N / > 100.0 µg/mL | 7.0 (≈ 7.95 µM) | 10.0 (≈ 11.4 µM) | N / > 100.0 µg/mL | 14.9 (≈ 16.9 µM) | 25.0 (≈ 28.4 µM) | N / > 100.0 µg/mL | N / > 100.0 µg/mL | N / > 100.0 µg/mL | N / > 100.0 µg/mL | N / > 100.0 µg/mL | % inhibition (HepG2; c 200 µg/mL): 18.5 ± 2.8%
3 | CCCCCCCCCCCCCCCC(=O)NCC(=O)N[C@H](C(=O)N[C@@H](CC(C)C)C(=O)N[C@@H](CCCCN)C(=O)N[C@@H](CCCNC(=N)N)C(=O)N[C@@H](C)C(N)=O)C(C)C [SHP-3.2, PAL-GVLKRA-NH2] (Palmitoyl-GVLKRA-NH2) |  | 17.0 ± 2.6 | 20.7 ± 3.1 | 4.1 ± 0.6 | 29.6 ± 4.4 | 0.0 ± 0.3 | N / > 100.0 µg/mL | 5.8 (≈ 6.59 µM) | 10.0 (≈ 11.4 µM) | 30.0 µg/mL (≈ 34.1 µM) | 6.8 (≈ 7.73 µM) | 12.5 (≈ 14.2 µM) | N / > 100.0 µg/mL | 100.0 µg/mL (≈ 114 µM) | N / > 100.0 µg/mL | 50.0 µg/mL (≈ 56.8 µM) | 100.0 µg/mL (≈ 114 µM) | influence on electrophoretic mobility of plasmid DNA (plasmid pGreen 0029; circular or linearized forms, tested ratios): did not exhibit any influence; % inhibition (HepG2; c 200 µg/mL): 23.2 ± 3.5%; MIC (Staph. aureus DBM 3002): 8.6 µg/mL (≈ 9.77 µM); MIC (E. coli DBM 3001; DBM 3001, 24 h): 68.7 µg/mL (≈ 78 µM); MIC (B. subtilis DBM 3006): 41.1 µg/mL (≈ 46.7 µM); MIC (Ps. aeruginosa DBM 3081; 24 h): 83.6 µg/mL (≈ 95 µM)
4 | CN(C)[C@@H]1C(O)=C(C(N)=O)C(=O)[C@@]2(O)C(O)=C3C(=O)c4c(O)cccc4[C@@](C)(O)[C@H]3C[C@@H]12 [tetracycline, reference compound] |  |  |  |  |  |  |  |  |  |  |  |  |  |  |  |  |  | MIC (A. baumannii DBM 3183; Acinetobacter baumannii, DBM3183, first value of cell 'MIC / IC50', lowest concentration with 100% inhibition for 24 h, 100 µL, OD 420–580 nm): 10 µg/mL (≈ 22.5 µM)
5 | NC[C@H]1O[C@H](O[C@H]2[C@H](O)[C@@H](O[C@H]3O[C@H](CO)[C@@H](O)[C@H](N)[C@H]3O)[C@H](N)C[C@@H]2N)[C@H](O)[C@@H](O)[C@@H]1O [kanamycin, reference compound] |  |  |  |  |  |  |  |  |  |  |  |  |  |  |  |  |  | MIC (Ps. aeruginosa DBM 3081; [2]): 20 µg/mL (≈ 41.3 µM)
6 | LVKRAG-NH2 [SHP-1.1, primary hexapeptide with C-terminal amidation] | low activity |  |  |  |  |  |  |  |  |  |  |  |  |  |  |  |  | growth inhibition (M. luteus DBM 3053; c = 1 mg/mL): One hundred percent; growth inhibition (Staph. aureus DBM 3002; c = 1 mg/mL, Staphylococcus aureus, strain not stated): One hundred percent
7 | CC(C)C[C@H](NC(=O)[C@@H](NC(=O)CNC(=O)CC[C@@H](C)[C@H]1CC[C@H]2[C@@H]3CC[C@@H]4C[C@H](O)CC[C@]4(C)[C@H]3CC[C@]12C)C(C)C)C(=O)N[C@@H](CCCCN)C(=O)N[C@@H](CCCNC(=N)N)C(=O)N[C@@H](C)C(N)=O [SHP-3.3, LCA-GVLKRA-NH2] (Lithocholoyl-GVLKRA-NH2) |  | 4.3 ± 0.6 | 35.6 ± 5.3 | 7.8 ± 1.2 | 28.5 ± 4.3 | 88.2 ± 13.2 | N / > 100.0 µg/mL | 1.5 (≈ 1.5 µM) | 5.0 (≈ 5 µM) | 50.0 µg/mL (≈ 50 µM) | 25.2 (≈ 25.2 µM) | 50.0 (≈ 50 µM) | N / > 100.0 µg/mL | N / > 100.0 µg/mL | 30.0 µg/mL (≈ 30 µM) | 50.0 µg/mL (≈ 50 µM) | N / > 100.0 µg/mL | weight ratio lipopeptide:DNA influencing electrophoretic mobility (plasmid pGreen 0029; circular plasmid): 1.0; weight ratio lipopeptide:DNA influencing electrophoretic mobility (plasmid pGreen 0029; linearized plasmid): 10.0; morphological effect on bacterial cells (TEM) (Staph. aureus): damaging cellular envelopes; MIC (Staph. aureus DBM 3002): 28.8 µg/mL (≈ 28.8 µM); MIC (C. tropicalis DBM 2166; [2]): 10.0 µg/mL (≈ 10 µM); MIC (B. subtilis DBM 3006): 34.3 µg/mL (≈ 34.3 µM)
8 | GVLKRA-NH2 [SHP-3.1] | low activity |  |  |  |  |  |  |  |  |  |  |  |  |  |  |  |  | growth inhibition (B. subtilis DBM 3006; c = 1 mg/mL): One hundred percent
